Key:
Type in all cases: physicochemical
[1] = Thermal decomposition: decomposition point (DP); conditions: sealed aluminum pan, 25 to 400°C, heating rate 10°C/min, nitrogen flow, single measurement
Experimental: For the determination of DP and HR, the compound is incorporated into a sealed aluminum pan. Analysis conditions are as following: Temperature range from 25 to 400°C, heating rate 10°C/min, nitrogen flow of 50 ml/min. Values are determined by single measurement.

[2] = UV-vis spectra (λ max and ε); conditions: dissolved in CH2Cl2, DMSO or in tfp
Experimental: For UV-vis spectra, λ max and ε values of a compound are determined by using an UV-vis spectrophotometer, the compound was dissolved in CH2Cl2, DMSO or in tfp. The values are obtained by balancing the measurements performed on compound solutions at three different concentrations.

[3] = Solubility in 2,2,3,3 tetrafluoropropanol; conditions: in 2,2,3,3 tetrafluoropropanol at 25 °C
Text: The solubilities were differentiated into three groups: A Good solubility (> 20 g / L) B Medium solubility (>= 10 and <= 20 g / L) C Poor solubility (<10 g / L)

DP [1]	ε (at λ max) ([2]; Table A, azo ligands)	λ max [2]	Solubility [3]	ε (at λ max) ([2]; Table B, metal complexes)	Structure (SMILES)
282 °C	63 L/g/cm	427 nm	A (Good solubility (> 20 g / L))	–	CCOC(=O)C1C(O)=C(N=Nc2ccc(C)cc2[N+](=O)[O-])C(=O)CC1(C)C (centres unmarked) [compound of formula (1)]
253 °C	52 L/g/cm	411 nm	A (Good solubility (> 20 g / L))	–	CCOC(=O)C1C(O)=C(N=Nc2cc([N+](=O)[O-])ccc2O)C(=O)CC1(C)C (centres unmarked) [compound of formula (2)]
274 °C	52 L/g/cm	421 nm	A (Good solubility (> 20 g / L))	–	CCOC(=O)C1C(O)=C(N=Nc2ccc(Cl)cc2[N+](=O)[O-])C(=O)CC1(C)C (centres unmarked) [compound of formula (3)]
200 °C	19 L/g/cm	384 nm	A (Good solubility (> 20 g / L))	–	CCOC(=O)C1C(O)=C(N=Nc2ccc(S(C)(=O)=O)cc2[N+](=O)[O-])C(=O)CC1(C)C (centres unmarked) [compound of formula (5)]
276 °C	32 L/g/cm	399 nm	A (Good solubility (> 20 g / L))	–	CCOC(=O)C1C(O)=C(N=Nc2ccc(C(F)(F)F)cc2[N+](=O)[O-])C(=O)CC1(C)C (centres unmarked) [compound of formula (7)]
285 °C	72 L/g/cm	400 nm	A (Good solubility (> 20 g / L))	–	CCOC(=O)C1C(O)=C(N=Nc2ccc([N+](=O)[O-])cc2Br)C(=O)CC1(C)C (centres unmarked) [compound of formula (9)]
248 °C	55 L/g/cm	413 nm	A (Good solubility (> 20 g / L))	–	CCOC(=O)C1C(O)=C(N=Nc2c(C)cc(C)cc2C)C(=O)CC1(C)C (centres unmarked) [compound of formula (10)]
288 °C	44 L/g/cm	432 nm	A (Good solubility (> 20 g / L))	–	CCOC(=O)C1C(O)=C(N=Nc2ccc([N+](=O)[O-])cc2OC)C(=O)CC1(C)C (centres unmarked) [compound of formula (11)]
279 °C	25 L/g/cm	438 nm	A (Good solubility (> 20 g / L))	–	CCOC(=O)C1C(O)=C(N=Nc2cc(OC)c(S(N)(=O)=O)cc2OC)C(=O)CC1(C)C (centres unmarked) [compound of formula (12)]
270 °C	52 L/g/cm	442 nm	C (Poor solubility (<10 g / L))	–	Cc1ccc(N=NC2=C(O)C(C#N)C(C)(C)CC2=O)c([N+](=O)[O-])c1 (centres unmarked) [compound of formula (13)]
222 °C	42 L/g/cm	437 nm	A (Good solubility (> 20 g / L))	–	CC1(C)CC(=O)C(N=Nc2ccc(Cl)cc2[N+](=O)[O-])=C(O)C1C#N (centres unmarked) [compound of formula (14)]
154 °C	50 L/g/cm	458 nm	C (Poor solubility (<10 g / L))	–	COc1ccc(N=NC2=C(O)C(C#N)C(C)(C)CC2=O)c([N+](=O)[O-])c1 (centres unmarked) [compound of formula (15)]
249 °C	17 L/g/cm	423 nm	C (Poor solubility (<10 g / L))	–	CC1(C)CC(=O)C(N=Nc2cc([N+](=O)[O-])ccc2O)=C(O)C1C#N (centres unmarked) [compound of formula (16)]
157 °C	29 L/g/cm	326 nm	A (Good solubility (> 20 g / L))	–	CCOC(=O)C1C(O)=C(N=Nc2c(F)c(F)c(F)c(F)c2F)C(=O)CC1(C)C (centres unmarked) [compound of formula (17)]
276 °C	–	431 nm	C (Poor solubility (<10 g / L))	50 L/g/cm	CCOC(=O)C1C([O][Cu][O]C2=C(N=Nc3ccc([N+](=O)[O-])cc3OC)C(=O)CC(C)(C)C2C(=O)OCC)=C(N=Nc2ccc([N+](=O)[O-])cc2OC)C(=O)CC1(C)C (centres unmarked) [compound of formula (18)]
278 °C	–	442 nm	A (Good solubility (> 20 g / L))	67 L/g/cm	CCOC(=O)C1C([O][Ni][O]C2=C(N=Nc3ccc([N+](=O)[O-])cc3OC)C(=O)CC(C)(C)C2C(=O)OCC)=C(N=Nc2ccc([N+](=O)[O-])cc2OC)C(=O)CC1(C)C (centres unmarked) [compound of formula (19)]

Structure (SMILES)	DP [1]	ε (at λ max) ([2]; Table A, azo ligands)	λ max [2]	Solubility [3]	ε (at λ max) ([2]; Table B, metal complexes)
CCOC(=O)C1C(O)=C(N=Nc2ccccc2[N+](=O)[O-])C(=O)CC1(C)C (centres unmarked) [compound of formula (4)]	238 °C	52 L/g/cm	424 nm	B (Medium solubility (>= 10 and <= 20 g / L))	–
CCOC(=O)C1C(O)=C(N=Nc2ccc(OC)cc2[N+](=O)[O-])C(=O)CC1(C)C (centres unmarked) [compound of formula (6)]	273 °C	56 L/g/cm	448 nm	B (Medium solubility (>= 10 and <= 20 g / L))	–
CCOC(=O)C1C(O)=C(N=Nc2c(Br)cc([N+](=O)[O-])cc2C#N)C(=O)CC1(C)C (centres unmarked) [compound of formula (8)]	226 °C	55 L/g/cm	396 nm	B (Medium solubility (>= 10 and <= 20 g / L))	–
CCOC(=O)C1C([O][Cu][O]C2=C(N=Nc3cc(OC)c(S(N)(=O)=O)cc3OC)C(=O)CC(C)(C)C2C(=O)OCC)=C(N=Nc2cc(OC)c(S(N)(=O)=O)cc2OC)C(=O)CC1(C)C (centres unmarked) [compound of formula (20)]	314 °C	–	441 nm	B (Medium solubility (>= 10 and <= 20 g / L))	42 L/g/cm

Source: patent EP1921115B1, “Use of 3-hydroxy-cyclohex-2-enone azo based dyes in optical layers” (Clariant Finance (BVI) Limited, priority 2006, dated 2008)
